In US9611222B2, “Pyridine compounds and the uses thereof” (Purdue Pharma L.P., priority 2010, dated 2017):

Molecular target: human Nav1.7 (Homo sapiens (Human), UniProt Q15858)
Test: FLIPR or FLIPR TETRA sodium dye assay with KCl and test article pre-incubation
Type: cell-based
Details: sodium channel blocking activity, recombinant HEK293 cells, CoroNa Green dye, veratridine + scorpion venom; read-out: Nav1.7 IC50 (μM) ± SEM

human Nav1.7, sequence (Q15858 with tags, fused parts or gaps limits assumed): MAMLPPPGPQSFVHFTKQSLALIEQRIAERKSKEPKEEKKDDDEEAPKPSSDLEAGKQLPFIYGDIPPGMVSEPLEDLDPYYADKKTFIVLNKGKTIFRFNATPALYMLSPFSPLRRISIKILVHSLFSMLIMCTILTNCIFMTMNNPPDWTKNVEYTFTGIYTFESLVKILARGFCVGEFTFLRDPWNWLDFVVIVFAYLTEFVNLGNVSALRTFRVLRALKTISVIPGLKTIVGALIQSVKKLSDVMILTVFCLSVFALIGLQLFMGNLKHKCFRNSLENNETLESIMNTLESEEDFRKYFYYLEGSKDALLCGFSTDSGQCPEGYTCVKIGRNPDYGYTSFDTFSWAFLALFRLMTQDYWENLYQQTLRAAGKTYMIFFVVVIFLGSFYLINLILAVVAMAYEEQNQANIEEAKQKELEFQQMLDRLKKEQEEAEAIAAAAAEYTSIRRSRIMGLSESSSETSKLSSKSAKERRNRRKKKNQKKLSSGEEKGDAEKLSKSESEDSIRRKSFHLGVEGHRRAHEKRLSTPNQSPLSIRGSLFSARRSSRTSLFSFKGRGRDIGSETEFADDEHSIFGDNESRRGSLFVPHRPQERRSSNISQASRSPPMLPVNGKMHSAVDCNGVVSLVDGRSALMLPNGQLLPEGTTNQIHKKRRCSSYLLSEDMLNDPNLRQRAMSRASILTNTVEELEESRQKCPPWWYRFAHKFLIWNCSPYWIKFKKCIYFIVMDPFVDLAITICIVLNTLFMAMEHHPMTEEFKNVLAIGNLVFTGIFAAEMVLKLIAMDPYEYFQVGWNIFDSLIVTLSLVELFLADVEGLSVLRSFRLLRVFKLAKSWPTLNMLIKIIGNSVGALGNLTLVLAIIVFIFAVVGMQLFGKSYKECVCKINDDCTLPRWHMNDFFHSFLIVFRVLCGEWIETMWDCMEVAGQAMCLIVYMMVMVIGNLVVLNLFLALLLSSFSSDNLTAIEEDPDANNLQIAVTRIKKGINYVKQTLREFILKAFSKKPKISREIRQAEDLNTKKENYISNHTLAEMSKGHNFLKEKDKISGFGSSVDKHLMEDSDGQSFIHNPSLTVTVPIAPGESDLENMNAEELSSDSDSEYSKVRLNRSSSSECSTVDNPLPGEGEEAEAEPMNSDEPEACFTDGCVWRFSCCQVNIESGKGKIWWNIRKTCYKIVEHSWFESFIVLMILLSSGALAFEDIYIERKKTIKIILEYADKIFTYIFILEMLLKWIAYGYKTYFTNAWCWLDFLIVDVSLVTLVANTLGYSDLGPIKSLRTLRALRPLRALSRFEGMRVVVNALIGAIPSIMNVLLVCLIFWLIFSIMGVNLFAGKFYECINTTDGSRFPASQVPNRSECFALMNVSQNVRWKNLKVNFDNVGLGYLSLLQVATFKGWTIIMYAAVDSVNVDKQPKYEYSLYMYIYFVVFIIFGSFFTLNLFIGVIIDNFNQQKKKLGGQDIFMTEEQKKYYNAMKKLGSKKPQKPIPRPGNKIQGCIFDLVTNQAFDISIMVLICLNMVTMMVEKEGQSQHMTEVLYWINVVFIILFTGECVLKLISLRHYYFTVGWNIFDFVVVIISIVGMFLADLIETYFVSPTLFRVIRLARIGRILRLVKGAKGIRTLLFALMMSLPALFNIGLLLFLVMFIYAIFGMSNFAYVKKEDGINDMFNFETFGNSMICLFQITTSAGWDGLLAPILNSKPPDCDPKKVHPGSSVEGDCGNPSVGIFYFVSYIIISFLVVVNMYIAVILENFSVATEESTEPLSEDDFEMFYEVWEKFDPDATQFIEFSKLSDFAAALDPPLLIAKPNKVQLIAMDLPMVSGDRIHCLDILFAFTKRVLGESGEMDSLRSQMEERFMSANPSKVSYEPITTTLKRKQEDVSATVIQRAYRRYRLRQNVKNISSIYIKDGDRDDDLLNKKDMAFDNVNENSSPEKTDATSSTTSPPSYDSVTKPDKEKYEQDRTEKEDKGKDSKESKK

Cc1cc(-c2nnn(CC(N)=O)n2)cc(-c2ccc(Oc3ccc(F)cc3)cc2)n1 [compound 108, 2-(5-(2-(4-(4-fluorophenoxy)phenyl)-6-methylpyridin-4-yl)-2H-tetrazol-2-yl) acetamide]
IC50: 0.13 ± 0.01 µM
